Measured values taken from the supplement of paper PMC13380429.

What was measured:
Details in all cases: 72 h
Vero E6 [1] = assay: cell viability relative to DMSO; higher = less toxic
Caco-2 [2] = assay: as above
U2OS [3] = assay: as above
Calu-3 [4] = assay: as above
HepG2 [5] = assay: as above
Vero E6 [6] = assay: relative viability EC50 (midpoint between 100% and the lowest measured viability); higher = less toxic
Caco-2 [7] = assay: as above
U2OS [8] = assay: as above
Calu-3 [9] = assay: as above
HepG2 [10] = assay: as above
Vero E6 [11] = assay: drug sensitivity score (DSS) for viability; higher = more toxic; extreme values may be limits of the assay
Caco-2 [12] = assay: as above
U2OS [13] = assay: as above
Calu-3 [14] = assay: as above
HepG2 [15] = assay: as above

| Structure (SMILES) | cell viability (Vero E6 [1]; 1 nM) | cell viability (Vero E6 [1]; 10 nM) | cell viability (Vero E6 [1]; 100 nM) | cell viability (Vero E6 [1]; 1000 nM) | cell viability (Vero E6 [1]; 10000 nM) | cell viability (Caco-2 [2]; 1 nM) | cell viability (Caco-2 [2]; 10 nM) | cell viability (Caco-2 [2]; 100 nM) | cell viability (Caco-2 [2]; 1000 nM) | cell viability (Caco-2 [2]; 10000 nM) | cell viability (U2OS [3]; 1 nM) | cell viability (U2OS [3]; 10 nM) | cell viability (U2OS [3]; 100 nM) | cell viability (U2OS [3]; 1000 nM) | cell viability (U2OS [3]; 10000 nM) | cell viability (Calu-3 [4]; 1 nM) | cell viability (Calu-3 [4]; 10 nM) | cell viability (Calu-3 [4]; 100 nM) | cell viability (Calu-3 [4]; 1000 nM) | cell viability (Calu-3 [4]; 10000 nM) | cell viability (HepG2 [5]; 1 nM) | cell viability (HepG2 [5]; 10 nM) | cell viability (HepG2 [5]; 100 nM) | cell viability (HepG2 [5]; 1000 nM) | cell viability (HepG2 [5]; 10000 nM) | relative viability EC50 (Vero E6 [6]) | relative viability EC50 (Caco-2 [7]) | relative viability EC50 (U2OS [8]) | relative viability EC50 (Calu-3 [9]) | relative viability EC50 (HepG2 [10]) | drug sensitivity score (Vero E6 [11]) | drug sensitivity score (Caco-2 [12]) | drug sensitivity score (U2OS [13]) | drug sensitivity score (Calu-3 [14]) | drug sensitivity score (HepG2 [15]) |
| --- | --- | --- | --- | --- | --- | --- | --- | --- | --- | --- | --- | --- | --- | --- | --- | --- | --- | --- | --- | --- | --- | --- | --- | --- | --- | --- | --- | --- | --- | --- | --- | --- | --- | --- | --- |
| O=C(O)CCC/C=C\C[C@@H]1[C@@H](/C=C/[C@@H](O)COc2cccc(Cl)c2)[C@H](O)C[C@@H]1O (racemic) [cloprostenol-(+/-)] | 99.1% | 103% | 105% | 102% | 102% | 100% | 104% | 96.1% | 97.7% | 92.3% | 103% | 106% | 99.9% | 102% | 97.6% | 110% | 108% | 106% | 95.5% | 100% | 98.2% | 106% | 104% | 103% | 104% | > 10 µM | > 10 µM | > 10 µM | > 10 µM | > 10 µM | 0 | 0 | 0 | 0 | 0 |
| CC(C)(C)NCC(O)c1cc(Br)no1 (stereo not given) [broxaterol] | 105% | 101% | 103% | 98.8% | 99.4% | 103% | 99.2% | 93% | 96.2% | 104% | 104% | 99.1% | 97.6% | 102% | 99.4% | 111% | 95.4% | 108% | 111% | 95.9% | 105% | 96.9% | 92.5% | 94.8% | 97.2% | > 10 µM | > 10 µM | > 10 µM | > 10 µM | > 10 µM | 0 | 0 | 0 | 0 | 0 |
| CCOC(=O)/C=C(C)/C=C/C=C(C)/C=C/c1c(C)cc(OC)c(C)c1C [etretinate] | 97.9% | 96.6% | 93% | 98.5% | 108% | 100% | 107% | 92.2% | 111% | 95.3% | 96% | 101% | 98.1% | 100% | 99.5% | 101% | 101% | 97.5% | 106% | 109% | 94.2% | 99.4% | 103% | 102% | 102% | > 10 µM | > 10 µM | > 10 µM | > 10 µM | > 10 µM | 0 | 0 | 0 | 0 | 0 |
| CCN(CCO)CCCC(C)Nc1ccnc2cc(Cl)ccc12 (stereo not given) [hydroxychloroquine] | 101% | 95.4% | 108% | 93.9% | 96.8% | 103% | 116% | 100% | 102% | 85.4% | 97.1% | 98.1% | 93.4% | 96.8% | 89.4% | 94.1% | 105% | 86.8% | 109% | 95.9% | 101% | 95.9% | 96.8% | 94.6% | 89.6% | > 10 µM | > 10 µM | > 10 µM | > 10 µM | > 10 µM | 0 | 0.1 | 0 | 0 | 0 |
| CO/N=C1\CN(c2nc3c(cc2F)c(=O)c(C(=O)O)cn3C2CC2)CC1CN (stereo not given) [gemifloxacin] | 103% | 102% | 102% | 102% | 95.7% | 92.2% | 114% | 105% | 96.9% | 95.9% | 97% | 102% | 97.3% | 100% | 94.3% | 99.6% | 98.5% | 98.4% | 98.5% | 105% | 105% | 108% | 105% | 100% | 86.8% | > 10 µM | > 10 µM | > 10 µM | > 10 µM | > 10 µM | 0 | 0 | 0 | 0 | 0.1 |
| O=C1[C@@H]2[C@H]3CC[C@H](C3)[C@@H]2C(=O)N1CCCCN1CCN(c2ncccn2)CC1 [tandospirone] | 107% | 104% | 98.5% | 96.2% | 101% | 93.6% | 95.5% | 94.1% | 98.2% | 95.4% | 98.3% | 98.6% | 98.5% | 99.8% | 97.7% | 113% | 103% | 92% | 86.8% | 99.7% | 107% | 97% | 110% | 104% | 99.7% | > 10 µM | > 10 µM | > 10 µM | > 10 µM | > 10 µM | 0 | 0 | 0 | 1.3 | 0 |
